Assay results as given in US20220227997A1, “Elastomeric silicone compositions comprising glycerol, cyclodextrin and octenidine” (Coloplast A/S, priority 2019, published 2022).
Where a name gives a salt, the structure may show the parent alone.

Key:
Pseudomonas aeruginosa = conditions: suspension test after 5 minutes of exposure; cited from earlier work
Proteus mirabilis = conditions: suspension test after 5 minutes of exposure; cited from earlier work
Staphylococcus aureus = conditions: suspension test after 5 minutes of exposure; cited from earlier work
Escherichia coli = conditions: suspension test after 5 minutes of exposure; cited from earlier work
Candida albicans = conditions: suspension test after 5 minutes of exposure; cited from earlier work
[1] = system: gram positive and gram negative bacteria; conditions: generally; cited from earlier work
[2] = in water; estimated by Steward et al.; cited from earlier work
[3] = Solubilization of octenidine in glycerol; format: physicochemical; conditions: without cyclodextrin
Text: Octenidine is an amphiphilic substance therefore its solubility in glycerol is negligible, but may form micelles for higher solubility. In this study β-cyclodextrin (βCD) was used as a tool for allowing significant amounts of hydrophobic substances to be dissolved in hydrophilic media such as glycerol. Cyclodextrins as cyclic oligosaccharides that form host-guest complexes with hydrophobic molecules thereby enabling multiple potential uses. Here octenidine (0.35 g) and β-cyclodextrin (0.3182 g) were added to glycerol. The molar ratio between octenidine and β-cyclodextrin in the example was 2:1. The mixture was heated up to 80° C. and agitated using a magnetic stirrer until a clear solution was obtained (usually no longer than 30 minutes). Obtaining a clear mixture is indicative of successful preparation of a βCD-octenidine complex.

Structure (SMILES)	Effective Concentration (Pseudomonas aeruginosa) [%]	Effective Concentration (Proteus mirabilis) [%]	Effective Concentration (Staphylococcus aureus) [%]	Effective Concentration (Escherichia coli) [%]	Effective Concentration (Candida albicans) [%]	Effective concentrations in suspension [1]	critical micellar concentration [2] [mM]	solubility in glycerol [3]
[H]/N=C(\N/C(=N/[H])NCCCCCCNC(=N)NC(=N)Nc1ccc(Cl)cc1)Nc1ccc(Cl)cc1 [Chlorhexidine digluconate]	>0.2	>0.2	>0.2	0.1	0.025			
CCCCCCCCN=c1ccn(CCCCCCCCCCn2ccc(=NCCCCCCCC)cc2)cc1 [Octenidine dihydrochloride, N-octyl-1-[10-(4-octyliminopyridin-1-yl)decyl]pyridin-4-imine dihydro-chloride]	0.025	0.025	0.025	0.025	0.01	above 0.005 wt %	3.79	negligible
